According to ChEMBL document CHEMBL1201862, “PubChem BioAssay data set” (2004):
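Following 48 hours of exposure in 96-well plates, responses at five concentrations were used to interpolate endpoints linearly. GI50: concentration for 50% inhibition of growth.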 Calls of active or inactive are those of the source. No stated cut-off is given here; in the data, active = GI50 up to about 1.1 µM and inactive = higher.

Assays:
Assay in all cases: NCI tumour cell line growth inhibition, 48 h
[1] = tested on: SNB-75
[2] = tested on: K562
[3] = tested on: NCI-H460
[4] = tested on: M14
[5] = tested on: NCI-H522
[6] = tested on: A549
[7] = tested on: U-251
[8] = tested on: ACHN
[9] = tested on: SF-539
[10] = tested on: KM12
[11] = tested on: NCI/ADR-RES
[12] = tested on: OVCAR-5
[13] = tested on: MDA-MB-231
[14] = tested on: COLO 205
[15] = tested on: MDA-MB-435
[16] = tested on: OVCAR-3
[17] = tested on: SNB-19
[18] = tested on: IGROV-1
[19] = tested on: RPMI-8226
[20] = tested on: A498
[21] = tested on: SN12C
[22] = tested on: UACC-62
[23] = tested on: T47D
[24] = tested on: SF-295
[25] = tested on: OVCAR-8
[26] = tested on: SF-268
[27] = tested on: LOX IMVI
[28] = tested on: SK-MEL-28
[29] = tested on: SK-OV-3
[30] = tested on: DU-145
[31] = tested on: SK-MEL-2
[32] = tested on: HCT-15
[33] = tested on: SW-620
[34] = tested on: PC-3
[35] = tested on: CAKI-1
[36] = tested on: SK-MEL-5
[37] = tested on: HCT-116
[38] = tested on: MOLT-4
[39] = tested on: UO-31
[40] = tested on: BT-549
[41] = tested on: MCF7
[42] = tested on: HOP-92
[43] = tested on: CCRF-CEM
[44] = tested on: Malme-3M
[45] = tested on: EKVX
[46] = tested on: UACC-257
[47] = tested on: Hs-578T
[48] = tested on: 786-0
[49] = tested on: NCI-H23
[50] = tested on: OVCAR-4
[51] = tested on: HCC 2998
[52] = tested on: TK-10
[53] = tested on: HL-60
[54] = tested on: HT-29
[55] = tested on: HOP-62
[56] = tested on: SR
[57] = tested on: NCI-H226
[58] = tested on: MDA-N
[59] = tested on: RXF 393

`CC(=O)O[C@@H]1[C@@H](O)C2=C3[C@]4(C)[C@@H]1C(C)(C)C(=O)C[C@@H]4[C@]3(O)[C@H](OC(C)=O)[C@@]1(C[C@@H]1C)C2=O` was tested, and the GI50 [1] was 21.8 µM (inactive), the GI50 [2] was 2.71 µM (inactive) and the GI50 [3] was 15.5 µM (inactive). For the same compound, the GI50 [4] was 25.2 µM (inactive), the GI50 [5] was 5.18 µM (inactive) and the GI50 [6] was 24.2 µM (inactive). The GI50 [7] was 16 µM (inactive), the GI50 [8] was 18.9 µM (inactive) and the GI50 [9] was 21.3 µM (inactive). For the same compound, the GI50 [10] was 16.6 µM (inactive), the GI50 [11] was 23.4 µM (inactive) and the GI50 [12] was 23.7 µM (inactive). For the same compound, the GI50 [13] was 19.7 µM (inactive), the GI50 [14] was 18.4 µM (inactive) and the GI50 [15] was 16 µM (inactive). The GI50 [16] was 18.5 µM (inactive), the GI50 [17] was 21 µM (inactive) and the GI50 [18] was 15.4 µM (inactive). For the same compound, the GI50 [19] was 6.7 µM (inactive), the GI50 [20] was 23.4 µM (inactive) and the GI50 [21] was 18.4 µM (inactive). The GI50 [22] was 13.7 µM (inactive), the GI50 [23] was 16.3 µM (inactive) and the GI50 [24] was 20.7 µM (inactive). For the same compound, the GI50 [25] was 18.5 µM (inactive), the GI50 [26] was 25.1 µM (inactive) and the GI50 [27] was 14.8 µM (inactive). For the same compound, the GI50 [28] was 16.3 µM (inactive), the GI50 [29] was 24.2 µM (inactive) and the GI50 [30] was 17.3 µM (inactive). For the same compound, the GI50 [31] was 25.6 µM (inactive), the GI50 [32] was 15.3 µM and the GI50 [33] was 18.3 µM (inactive). For the same compound, the GI50 [34] was 19.6 µM (inactive), the GI50 [35] was 15.5 µM (inactive) and the GI50 [36] was 19.8 µM (inactive). The GI50 [37] was 16.1 µM (inactive), the GI50 [38] was 26.6 µM (inactive) and the GI50 [39] was 17.5 µM (inactive). For the same compound, the GI50 [40] was 16.1 µM (inactive), the GI50 [41] was 19 µM (inactive) and the GI50 [42] was 15.6 µM (inactive). The GI50 [43] was 7.82 µM (inactive), the GI50 [44] was 13.5 µM (inactive) and the GI50 [45] was 19.2 µM (inactive). The GI50 [46] was 13.9 µM (inactive), the GI50 [47] was 41.2 µM (inactive) and the GI50 [48] was 15.6 µM (inactive). The GI50 [49] was 29.3 µM (inactive), the GI50 [50] was 19.5 µM (inactive) and the GI50 [51] was 15.4 µM (inactive). For the same compound, the GI50 [52] was 14.2 µM (inactive) and the GI50 [53] was 13.6 µM (inactive).
`CCN(CC)Cc1nc2sc3c(c2c(=O)n1-c1ccccc1)CCCC3` was tested, and the GI50 [1] was 18.4 µM (inactive), the GI50 [2] was 35.2 µM (inactive) and the GI50 [3] was 19.6 µM (inactive). For the same compound, the GI50 [4] was 15.9 µM (inactive), the GI50 [54] was 12.9 µM (inactive) and the GI50 [5] was 21.8 µM (inactive). For the same compound, the GI50 [6] was 20.5 µM (inactive), the GI50 [7] was 16.9 µM (inactive) and the GI50 [8] was 20 µM (inactive). For the same compound, the GI50 [10] was 46.3 µM (inactive), the GI50 [11] was 24.8 µM (inactive) and the GI50 [55] was 27.4 µM (inactive). For the same compound, the GI50 [12] was 19.7 µM (inactive), the GI50 [13] was 15.3 µM (inactive) and the GI50 [14] was 17.7 µM (inactive). The GI50 [16] was 17.2 µM (inactive), the GI50 [17] was 35.6 µM (inactive) and the GI50 [18] was 18.7 µM (inactive). For the same compound, the GI50 [19] was 26.7 µM (inactive), the GI50 [20] was 15.3 µM (inactive) and the GI50 [21] was 19.5 µM (inactive). For the same compound, the GI50 [22] was 15.4 µM (inactive), the GI50 [23] was 18.8 µM (inactive) and the GI50 [24] was 23.7 µM (inactive). For the same compound, the GI50 [25] was 17.5 µM (inactive), the GI50 [56] was 34.5 µM (inactive) and the GI50 [26] was 21.1 µM (inactive). For the same compound, the GI50 [57] was 15.2 µM (inactive), the GI50 [27] was 13.8 µM (inactive) and the GI50 [28] was 35.4 µM (inactive). The GI50 [29] was 23.7 µM (inactive), the GI50 [30] was 23 µM (inactive) and the GI50 [31] was 19.1 µM (inactive). The GI50 [32] was 23.8 µM, the GI50 [33] was 16.7 µM (inactive) and the GI50 [34] was 15.9 µM (inactive). For the same compound, the GI50 [58] was 19.7 µM (inactive), the GI50 [35] was 19.7 µM (inactive) and the GI50 [36] was 16.3 µM (inactive). The GI50 [37] was 18.7 µM (inactive), the GI50 [38] was 17.4 µM (inactive) and the GI50 [59] was 18.5 µM (inactive). For the same compound, the GI50 [39] was 11.2 µM (inactive), the GI50 [40] was 28.3 µM (inactive) and the GI50 [41] was 17.5 µM (inactive). The GI50 [42] was 22 µM (inactive), the GI50 [43] was 28.4 µM (inactive) and the GI50 [44] was 23.3 µM (inactive). For the same compound, the GI50 [45] was 19.8 µM (inactive), the GI50 [46] was 21.2 µM (inactive) and the GI50 [47] was 34.5 µM (inactive). The GI50 [48] was 17.7 µM (inactive), the GI50 [49] was 35.1 µM (inactive) and the GI50 [50] was 15.6 µM (inactive). For the same compound, the GI50 [51] was 17.6 µM (inactive), the GI50 [52] was 16.4 µM (inactive) and the GI50 [53] was 23.3 µM (inactive).
For `Oc1ccc(/C=C/c2cc(O)cc(O)c2)cc1` [RESVERATROL], the GI50 [1] was 95.1 µM (inactive), the GI50 [3] was 42.1 µM (inactive) and the GI50 [4] was 49.8 µM (inactive). The GI50 [54] was 24.3 µM (inactive), the GI50 [6] was 51.6 µM (inactive) and the GI50 [7] was > 100 µM (inactive). The GI50 [8] was 27 µM (inactive), the GI50 [9] was 29.6 µM (inactive) and the GI50 [10] was 31.9 µM (inactive). The GI50 [11] was 19.6 µM (inactive), the GI50 [55] was 92 µM (inactive) and the GI50 [12] was > 100 µM (inactive). For the same compound, the GI50 [13] was > 100 µM (inactive), the GI50 [15] was 70.1 µM (inactive) and the GI50 [16] was > 100 µM (inactive). For the same compound, the GI50 [17] was > 100 µM (inactive), the GI50 [19] was 8.63 µM (inactive) and the GI50 [20] was 24.3 µM (inactive). For the same compound, the GI50 [21] was 42.8 µM (inactive), the GI50 [22] was 41.2 µM (inactive) and the GI50 [23] was 8.65 µM (inactive). The GI50 [24] was 44 µM (inactive), the GI50 [25] was 48.8 µM (inactive) and the GI50 [56] was 53.1 µM (inactive). For the same compound, the GI50 [26] was > 100 µM (inactive), the GI50 [57] was 39.9 µM (inactive) and the GI50 [28] was > 100 µM (inactive). The GI50 [29] was 79.3 µM (inactive), the GI50 [30] was 12.1 µM (inactive) and the GI50 [31] was 86.3 µM (inactive). For the same compound, the GI50 [32] was greater than 100 µM, the GI50 [33] was > 100 µM (inactive) and the GI50 [34] was 42.4 µM (inactive). For the same compound, the GI50 [58] was 50.7 µM (inactive), the GI50 [35] was 42.2 µM (inactive) and the GI50 [38] was 7.23 µM (inactive). For the same compound, the GI50 [59] was 40.9 µM (inactive), the GI50 [39] was 35.7 µM (inactive) and the GI50 [40] was > 100 µM (inactive). The GI50 [41] was 67 µM (inactive), the GI50 [42] was > 100 µM (inactive) and the GI50 [45] was 81.5 µM (inactive). For the same compound, the GI50 [46] was > 100 µM (inactive), the GI50 [49] was 46 µM (inactive) and the GI50 [50] was > 100 µM (inactive). The GI50 [51] was 62.4 µM (inactive), the GI50 [52] was > 100 µM (inactive) and the GI50 [53] was 20.4 µM (inactive).
